Reference: patent publication US10912820B2, “Use of immunomodulatory kits for immunotherapeutic treatment of patients with myeloid leukemias” (Modiblast Pharma GmbH, priority 2014, dated 2021)

Assay: In vivo treatment of healthy PVG.1N rats with single substances (safety data)
Details: i.v.; for (severe) side effects (breathing, sleep, food intake, mobility, skin, weight): Picibanil 0.35 μg/rat, PGE2 1 μg/rat, PGE1 1 μg/rat; for Flow cytometric analyzes on blood cells (Teff, Treg, CD4, CD8, NK, NKT cells) compared to placebo: data not shown
Method: Safety data were performed on a total of 4 rats of the healthy strain PVG.1N: they were given the clinically intended final concentrations of the single substances i.v. in the following doses: Picibanil (0.35 μg/rat), PGE2 (1 μg/rat), PGE1 (1 μg/rat) and placebo (PBS).

CCCCC[C@H](O)/C=C/[C@H]1[C@H](O)CC(=O)[C@@H]1CCCCCCC(=O)O [PGE1, Alprostadil]
(severe) side effects (breathing, sleep, food intake, mobility, skin, weight): no (severe) side effects
Flow cytometric analyzes on blood cells (Teff, Treg, CD4, CD8, NK, NKT cells) compared to placebo: no difference compared to the placebo controls

CCCCC[C@H](O)/C=C/[C@H]1[C@H](O)CC(=O)[C@@H]1C/C=C\CCCC(=O)O [PGE2, Prostaglandin E2]
(severe) side effects (breathing, sleep, food intake, mobility, skin, weight): no (severe) side effects
Flow cytometric analyzes on blood cells (Teff, Treg, CD4, CD8, NK, NKT cells) compared to placebo: no difference compared to the placebo controls
